Several values for one entry are separate records, joined by “and”; a condition that tells them apart may be missing. Equal entries are not always repeated. Toxic doses and inconclusive results are not listed. No stated cut-off is given here; in the data, active means T/C of 150% or more; inactive means T/C below 125%.
Test system: L1210 leukemia ip in BDF1 mice, survival T/C
Test: NCI In Vivo Anticancer Drug Screen. Data for tumor model L1210 Leukemia (intraperitoneal) in B6D2F1 (BDF1) mice
Details: endpoint: mean survival time, higher = longer survival
Method in brief: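 Transplantable tumor model; survival measured in treated vs vehicle control mice. Value = treated/control.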

[1] = dose: 100.0 mg/kg/injection, schedule: Q01DX009 (ip), vehicle: Klucel (hydroxypropylcellulose) (HPC)
[2] = dose: 200.0 mg/kg/injection, schedule: Q01DX009 (ip), vehicle: Klucel (hydroxypropylcellulose) (HPC)
[3] = dose: 400.0 mg/kg/injection, schedule: Q01DX009 (ip), vehicle: Klucel (hydroxypropylcellulose) (HPC)
[4] = dose: 100.0 mg/kg/injection, schedule: Q01DX009 (ip), vehicle: saline with Tween-80
[5] = dose: 100.0 mg/kg/injection, schedule: Q04DX003 (ip), vehicle: saline with Tween-80
[6] = dose: 200.0 mg/kg/injection, schedule: Q04DX003 (ip), vehicle: saline with Tween-80
[7] = dose: 400.0 mg/kg/injection, schedule: Q04DX003 (ip), vehicle: saline with Tween-80
[8] = dose: 100.0 mg/kg/injection, schedule: Q04DX003 (ip), vehicle: Klucel (hydroxypropylcellulose) (HPC)
[9] = dose: 200.0 mg/kg/injection, schedule: Q04DX003 (ip), vehicle: Klucel (hydroxypropylcellulose) (HPC)
[10] = dose: 100.0 mg/kg/injection, schedule: Q01DX001 (ip), vehicle: Klucel (hydroxypropylcellulose) (HPC)
[11] = dose: 200.0 mg/kg/injection, schedule: Q01DX001 (ip), vehicle: Klucel (hydroxypropylcellulose) (HPC)
[12] = dose: 100.0 mg/kg/injection, schedule: Q01DX001 (ip), vehicle: carboxymethylcellulose (CMC)
[13] = dose: 200.0 mg/kg/injection, schedule: Q01DX001 (ip), vehicle: carboxymethylcellulose (CMC)
[14] = dose: 400.0 mg/kg/injection, schedule: Q01DX001 (ip), vehicle: carboxymethylcellulose (CMC)

Measured: T/C

CC(Cl)CN(CC(C)Cl)c1ccc(S(=O)(=O)Nc2ncccn2)cc1 (configuration not stated)
inactive: dose: 5.0 mg/kg/injection, schedule: Q01DX009 (ip), vehicle: gum acacia 107 % of control | dose: 5.0 mg/kg/injection, schedule: Q01DX009 (ip), vehicle: saline 104 % of control | dose: 8.0 mg/kg/injection, schedule: Q01DX009 (ip), vehicle: gum acacia 100 % of control | dose: 10.0 mg/kg/injection, schedule: Q01DX009 (ip), vehicle: saline 98 % of control | dose: 12.0 mg/kg/injection, schedule: Q01DX009 (ip), vehicle: gum acacia 96 % of control | dose: 20.0 mg/kg/injection, schedule: Q01DX009 (ip), vehicle: saline 105 % of control | dose: 30.0 mg/kg/injection, schedule: Q01DX009 (ip), vehicle: saline 111 % of control | dose: 45.0 mg/kg/injection, schedule: Q01DX009 (ip), vehicle: saline 114 % of control and 117 % of control | dose: 80.0 mg/kg/injection, schedule: Q01DX009 (ip), vehicle: other 122 % of control | dose: 80.0 mg/kg/injection, schedule: Q01DX009 (ip), vehicle: saline with Tween-80 123 % of control | dose: 80.0 mg/kg/injection, schedule: Q01DX009 (ip), vehicle: saline 106 % of control and 108 % of control | dose: 90.0 mg/kg/injection, schedule: Q01DX009 (ip), vehicle: saline 120 % of control | dose: 120.0 mg/kg/injection, schedule: Q01DX009 (ip), vehicle: other 121 % of control | dose: 120.0 mg/kg/injection, schedule: Q01DX009 (ip), vehicle: saline 111 % of control | dose: 180.0 mg/kg/injection, schedule: Q01DX009 (ip), vehicle: other 98 % of control

CCOC(=O)C(=CNc1ccccc1)C(=O)OCC
inactive: [1] 97 % of control | [2] 90 % of control | [3] 97 % of control

O=C(Nc1ccc(C2=NCCO2)cc1)c1ccc(C(=O)Nc2ccc(C3=NCCO3)cc2)cc1
inactive: dose: 15.0 mg/kg/injection, schedule: Q01DX Z (ip), vehicle: carboxymethylcellulose (CMC) 105 % of control | dose: 30.0 mg/kg/injection, schedule: Q01DX Z (ip), vehicle: carboxymethylcellulose (CMC) 96 % of control | dose: 60.0 mg/kg/injection, schedule: Q01DX Z (ip), vehicle: carboxymethylcellulose (CMC) 91 % of control | dose: 120.0 mg/kg/injection, schedule: Q01DX Z (ip), vehicle: carboxymethylcellulose (CMC) 96 % of control

[O-][n+]1ccccc1SSc1cccc[n+]1[O-]
inactive: dose: 6.25 mg/kg/injection, schedule: Q01DX009 (ip), vehicle: Klucel (hydroxypropylcellulose) (HPC) 99 % of control | dose: 12.5 mg/kg/injection, schedule: Q01DX009 (ip), vehicle: Klucel (hydroxypropylcellulose) (HPC) 96 % of control and 98 % of control | dose: 25.0 mg/kg/injection, schedule: Q01DX009 (ip), vehicle: Klucel (hydroxypropylcellulose) (HPC) 88 % of control

CC(=O)CC(=O)C(F)(F)F.CC(=O)CC(=O)C(F)(F)F.CC(=O)CC(=O)C(F)(F)F.[Rh]
inactive: [4] 97 % of control | [5] 97 % of control | dose: 200.0 mg/kg/injection, schedule: Q01DX009 (ip), vehicle: saline with Tween-80 100 % of control | [6] 90 % of control | dose: 400.0 mg/kg/injection, schedule: Q01DX009 (ip), vehicle: saline with Tween-80 96 % of control | [7] 92 % of control

CCCCCCCCCCCCCCCC(=O)N(CCCN)C(C)CCCN(CC)CC (configuration not stated)
inactive: dose: 25.0 mg/kg/injection, schedule: Q01DX009 (ip), vehicle: saline with Tween-80 93 % of control | dose: 50.0 mg/kg/injection, schedule: Q01DX009 (ip), vehicle: saline with Tween-80 86 % of control | [4] 102 % of control | [5] 97 % of control | [6] 103 % of control | [7] 100 % of control

CC(=O)n1ccnc1/C=C\c1ccc([N+](=O)[O-])s1
inactive: [8] 103 % of control | [9] 101 % of control

[O-][n+]1c(C(Cl)(Cl)Cl)cc(Cl)nc1Cl
inactive: [10] 98 % of control | [11] 97 % of control

CC(=O)CC(=O)NCc1cccc(C)n1
inactive: dose: 100.0 mg/kg/injection, schedule: Q04DX003 (ip), vehicle: saline 114 % of control | dose: 200.0 mg/kg/injection, schedule: Q04DX003 (ip), vehicle: saline 98 % of control | dose: 400.0 mg/kg/injection, schedule: Q04DX003 (ip), vehicle: saline 103 % of control

CCOC(=O)C1=NN(c2ccccc2)C(=O)C1
inactive: [1] 105 % of control | [8] 98 % of control | [5] 94 % of control | [2] 103 % of control | [9] 96 % of control | [6] 100 % of control | [3] 92 % of control | dose: 400.0 mg/kg/injection, schedule: Q04DX003 (ip), vehicle: Klucel (hydroxypropylcellulose) (HPC) 102 % of control | [7] 93 % of control

CN1CCC2CCCCC2C1Cc1ccc(Oc2ccc(CC3C4CCCCC4CCN3C)cc2)cc1 (configuration not stated)
inactive: dose: 0.78 mg/kg/injection, schedule: Q04DX002 (ip), vehicle: Klucel (hydroxypropylcellulose) (HPC) 91 % of control | dose: 1.56 mg/kg/injection, schedule: Q04DX002 (ip), vehicle: Klucel (hydroxypropylcellulose) (HPC) 88 % of control | dose: 3.12 mg/kg/injection, schedule: Q04DX002 (ip), vehicle: Klucel (hydroxypropylcellulose) (HPC) 91 % of control

O=C(CCCN1CCC2(CC1)OC(=O)N(c1ccc(F)cc1)C2=O)c1cccs1
inactive: dose: 50.0 mg/kg/injection, schedule: Q01DX001 (ip), vehicle: Klucel (hydroxypropylcellulose) (HPC) 94 % of control | [10] 91 % of control | [11] 88 % of control

Cn1c(N)c(N=Nc2ccc(S(=O)(=O)Nc3ccccn3)cc2)c(=O)n(C)c1=O
inactive: [12] 98 % of control | [13] 93 % of control | [14] 93 % of control

Cc1ccc(S(=O)(=O)Nc2ccccc2C(=O)c2ccc(C)c(C)c2)cc1
inactive: [12] 100 % of control

CC12CCC3C4CCC(=O)C(O)=C4CCC3C1CCC2OC(=O)CCC1CCCC1 (configuration not stated)
inactive: dose: 100.0 mg/kg/injection, schedule: Q01DX009 (sc), vehicle: steriod suspending solution 96 % of control | dose: 200.0 mg/kg/injection, schedule: Q01DX009 (sc), vehicle: steriod suspending solution 107 % of control | dose: 400.0 mg/kg/injection, schedule: Q01DX009 (sc), vehicle: steriod suspending solution 100 % of control

Cn1c(C(O)(Cc2ccccn2)Cc2ccccn2)cc2ccccc21
inactive: dose: 100.0 mg/kg/injection, schedule: Q04DX002 (ip), vehicle: saline with Tween-80 90 % of control | dose: 200.0 mg/kg/injection, schedule: Q04DX002 (ip), vehicle: saline with Tween-80 90 % of control | dose: 400.0 mg/kg/injection, schedule: Q04DX002 (ip), vehicle: saline with Tween-80 97 % of control

Cc1cc(C)c(C(=O)N/N=C/c2ccc(N(CCCl)CCCl)cc2)c(=O)[nH]1
inactive: dose: 50.0 mg/kg/injection, schedule: Q01DX001 (ip), vehicle: carboxymethylcellulose (CMC) 97 % of control | [12] 100 % of control | [13] 103 % of control | [14] 92 % of control

[Cl][Pt][Cl].c1ccc([PH+](c2ccccc2)C2CCCCC2)cc1.c1ccc([PH+](c2ccccc2)C2CCCCC2)cc1
inactive: dose: 6.25 mg/kg/injection, schedule: Q04DX003 (ip), vehicle: water 96 % of control | dose: 12.5 mg/kg/injection, schedule: Q04DX003 (ip), vehicle: water 98 % of control | dose: 25.0 mg/kg/injection, schedule: Q04DX003 (ip), vehicle: water 96 % of control | dose: 50.0 mg/kg/injection, schedule: Q04DX003 (ip), vehicle: water 98 % of control

Reference: PubChem BioAssay AID248 (DTP/NCI, 2004)
